Data published in the NIST ThermoML archive (doi:10.1021/je800110r).

Details: 293.15 K, Liquid, Vibrating tube method

CCCCCCCCCC [decane]
Details	mass density [kg/m3]
17005 kPa	742.2
17022 kPa	742.3
17041 kPa	742.3
17058 kPa	742.3
17074 kPa	742.3
17089 kPa	742.1
17103 kPa	742.4
17122 kPa	742.2
17142 kPa	742.2
17156 kPa	742.3
17176 kPa	742.3
17193 kPa	742.3
17207 kPa	742.3
17227 kPa	742.3
17240 kPa	742.3
17257 kPa	742.4
17274 kPa	742.5
17296 kPa	742.3
17313 kPa	742.4
17338 kPa	742.4
17352 kPa	742.4
17370 kPa	742.4
17390 kPa	742.4
17410 kPa	742.4
17425 kPa	742.4
17440 kPa	742.5
17453 kPa	742.5
17471 kPa	742.5
17486 kPa	742.5
17508 kPa	742.5
17521 kPa	742.6
17538 kPa	742.6
17558 kPa	742.6
17571 kPa	742.6
17589 kPa	742.5
17610 kPa	742.6
17627 kPa	742.7
17648 kPa	742.6
17663 kPa	742.6
17679 kPa	742.6
17699 kPa	742.6
17715 kPa	742.7
17736 kPa	742.7
17752 kPa	742.7
17772 kPa	742.8
17787 kPa	742.6
17806 kPa	742.7
17828 kPa	742.8
17849 kPa	742.7
17868 kPa	742.8
17883 kPa	742.8
17899 kPa	742.8
17913 kPa	742.8
17931 kPa	742.9
17955 kPa	743
17969 kPa	742.9
17985 kPa	743
18004 kPa	742.9
18017 kPa	742.9
18036 kPa	742.9
18058 kPa	743
18072 kPa	743
18088 kPa	743
18102 kPa	742.9
18118 kPa	742.9
18140 kPa	743
18162 kPa	742.9
18178 kPa	743.2
18195 kPa	743
18214 kPa	743
18233 kPa	743
18256 kPa	742.9
18273 kPa	743.2
18295 kPa	743
18317 kPa	743
18342 kPa	743.1
18359 kPa	743.1
18381 kPa	743.1
18400 kPa	743.1
18418 kPa	743.2
18434 kPa	743.1
18457 kPa	743.3
18474 kPa	743.3
18500 kPa	743.2
18520 kPa	743.3
18538 kPa	743.2
18560 kPa	743.3
18581 kPa	743.3
18599 kPa	743.3
18622 kPa	743.3
18645 kPa	743.4
18663 kPa	743.4
18686 kPa	743.3
18701 kPa	743.3
18728 kPa	743.3
18745 kPa	743.3
18766 kPa	743.4
18793 kPa	743.4
18811 kPa	743.5
18832 kPa	743.4
18849 kPa	743.4
18871 kPa	743.5
18888 kPa	743.5
18912 kPa	743.5
18936 kPa	743.6
18955 kPa	743.5
18976 kPa	743.6
19001 kPa	743.6
19019 kPa	743.6
19043 kPa	743.6
19062 kPa	743.5
19077 kPa	743.5
19096 kPa	743.7
19115 kPa	743.7
19134 kPa	743.7
19153 kPa	743.7
19172 kPa	743.6
19191 kPa	743.6
19259 kPa	743.8
19307 kPa	743.7
19325 kPa	743.7
19340 kPa	743.7
19353 kPa	743.9
19374 kPa	743.8
19395 kPa	743.9
19408 kPa	743.8
19424 kPa	743.9
19451 kPa	743.9
19464 kPa	743.9
19480 kPa	743.8
19495 kPa	743.8
19511 kPa	743.8
19524 kPa	743.8
19536 kPa	743.9
19556 kPa	743.9
19575 kPa	744
19589 kPa	743.9
